The values that follow come from patent US20240228458A1, “PYRIMIDINE DERIVATIVE HAVING PROTEIN KINASE INHIBITORY ACTIVITY, AND THERAPEUTIC PHARMACEUTICAL COMPOSITION COMPRISING SAME” (THERAPEX CO., LTD., priority 2021, published 2024).

Common to all, as to assay type: cell-based
In test [1] the test system is Ba/F3 cells expressing del19/T790M/C797S (EGFR-DTC). The test is described as follows: Growth inhibition (GI50) of Ba/F3 cells expressing del19/T790M/C797S (EGFR-DTC), Celltiter glo. Particulars: Mus musculus, BaF3, 72 h. In outline:
(§1)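 Viable-cell luminescence (CellTiter-Glo) after 72 h compound exposure at 37 °C, 5% CO2 gave GI50 (μM, 50% growth inhibition). Compounds were 4-fold serial dilutions, 10 points, from a 2 mM stock, 0.5% DMSO, added 4 h after plating EGFR-variant Ba/F3 cells at 100,000 cells/ml.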
(ATP-based viability assays read luminescence as a measure of living cells.)

Test [2] has as its system Ba/F3 cells expressing L858R/T790M (EGFR-LT). The test is described as follows: Growth inhibition (GI50) of Ba/F3 cells expressing L858R/T790M (EGFR-LT), Celltiter glo. As to conditions: Mus musculus, BaF3, 72 h. Summed up: as §1
In test [3] the test system is Ba/F3 cells expressing EGFR-wt. The test can be described thus: Growth inhibition (GI50) of Ba/F3 cells expressing EGFR-wt, Celltiter glo. As to conditions: Mus musculus, BaF3, 72 h. Summed up: as §1
Test [4] deals with Ba/F3 cells expressing L858R/T790M/C797S (EGFR-LTC). The test can be described thus: Growth inhibition (GI50) of Ba/F3 cells expressing L858R/T790M/C797S (EGFR-LTC), Celltiter glo. As to conditions: Mus musculus, BaF3, 72 h. Summed up:
as §1

For test [5], the system named is Ba/F3 cells expressing del19/T790M (EGFR-DT). The test can be described thus: Growth inhibition (GI50) of Ba/F3 cells expressing del19/T790M (EGFR-DT), Celltiter glo. As to conditions: Mus musculus, BaF3, 72 h. Summed up: as §1
The subject of the next test is parental Ba/F3 cell line. The test can be described thus: Growth inhibition (GI50) of the parental Ba/F3 cell line (not introduced with EGFR variants), Celltiter glo. As to conditions: Mus musculus, BaF3, 72 h, parental Ba/F3 cells. Summed up: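 Viable cell count by CellTiter-Glo after 72 h at 37 °C gave GI50 values (μM, 50% growth inhibition). Cells lacking EGFR variants were seeded at 100,000 cells/ml and dosed 4 h later with 4-fold serial dilutions from a 2 mM stock, 0.5% DMSO.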

The GI50 is the concentration giving 50% growth inhibition.

Structures are written as SMILES.

Regarding `CN1CCN(C2CCN(c3ccc4cc(Nc5ncc(Cl)c(Nc6cc7c(cc6NS(C)(=O)=O)CCO7)n5)ccc4n3)CC2)CC1` [Example 223, N-(6-((5-chloro-2-((2-(4-(4-methylpiperazin-1-yl)piperidin-1-yl)quinolin-6-yl)amino)pyrimidin-4-yl)amino)-2,3-dihydrobenzofuran-5-yl)methanesulfonamide], the concentration for 50% growth inhibition (GI50) in test [1] lay within 500 to 2000 nM; in test [2] it was 100 to 500 nM; in test [3], 2000 to 10000 nM; in test [4] it was 500 to 2000 nM; in test [5] it was 100 to 500 nM; in the test with parental Ba/F3 cell line, 2000 to 10000 nM.
Consider `COc1cc(N2CCC(Nc3ccnn3C)CC2)c(C)cc1Nc1ncc(Cl)c(Nc2cc3c(cc2NS(C)(=O)=O)CCO3)n1` [Example 224, N-(6-((5-chloro-2-((2-methoxy-5-methyl-4-(4-((1-methyl-1H-pyrazol-5-yl)amino)piperidin-1-yl)phenyl)amino)pyrimidin-4-yl)amino)-2,3-dihydrobenzofuran-5-yl)methanesulfonamide], for which the GI50 in test [1] was 25 to 100 nM; in test [2], 25 to 100 nM; in test [3], 500 to 2000 nM; in test [4], 25 to 100 nM; in test [5], 100 to 500 nM; with parental Ba/F3 cell line, 100 to 500 nM.
For `COc1cc(N2CCC(N3CCN(C(F)(F)F)CC3)CC2)c(C)cc1Nc1ncc(Cl)c(Nc2cc3c(cc2NS(C)(=O)=O)CCO3)n1` [Example 225, N-(6-((5-chloro-2-((2-methoxy-5-methyl-4-(4-(4-(trifluoromethyl)piperazin-1-yl)piperidin-1-yl)phenyl)amino)pyrimidin-4-yl)amino)-2,3-dihydrobenzofuran-5-yl)methanesulfonamide], the concentration for 50% growth inhibition (GI50) in test [1] was 1 to 25 nM; in test [2], 25 to 100 nM; in test [3], 500 to 2000 nM; in test [4], 25 to 100 nM; in test [5], 25 to 100 nM; with parental Ba/F3 cell line it was 2000 to 10000 nM.
In the case of `CN1CCN(C2CCN(c3cc(Cl)c(Nc4ncc(Cl)c(Nc5cc(Cl)ccc5N(C)S(C)(=O)=O)n4)cc3Cl)CC2)CC1` [Example 226, N-(4-chloro-2-((5-chloro-2-((2,5-dichloro-4-(4-(4-methylpiperazin-1-yl)piperidin-1-yl)phenyl)amino)pyrimidin-4-yl)amino)phenyl)-N-methylmethanesulfonamide], the GI50 in test [1] lay within 25 to 100 nM; in test [2] it was 25 to 100 nM; in test [3], 100 to 500 nM; in test [4], 25 to 100 nM; in test [5], 25 to 100 nM; with parental Ba/F3 cell line, 500 to 2000 nM.
Take `Cc1cc(Nc2ncc(Br)c(Nc3cc(Cl)ccc3N(C)S(C)(=O)=O)n2)c(Cl)cc1N1CCC(N2CCC(N(C)C)C2)CC1` (stereo not drawn) [Example 227, N-(2-((5-bromo-2-((2-chloro-4-(4-(3-(dimethylamino)pyrrolidin-1-yl)piperidin-1-yl)-5-methylphenyl)amino)pyrimidin-4-yl)amino)-4-chlorophenyl)-N-methylmethanesulfonamide]: the 50% growth inhibitory concentration (GI50) in test [1] lay within 1 to 25 nM; in test [2] it was 1 to 25 nM; in test [3], 1 to 25 nM; in test [4], 25 to 100 nM; in test [5], 1 to 25 nM; with parental Ba/F3 cell line, 100 to 500 nM.
For the compound `CN1CCN(C2CCN(c3cc(Cl)c(Nc4ncc(Br)c(Nc5cc(Cl)ccc5N(C)S(C)(=O)=O)n4)cc3Cl)CC2)CC1` [Example 228, N-(2-((5-bromo-2-((2,5-dichloro-4-(4-(4-methylpiperazin-1-yl)piperidin-1-yl)phenyl)amino)pyrimidin-4-yl)amino)-4-chlorophenyl)-N-methylmethanesulfonamide], the 50% growth inhibitory concentration (GI50) in test [1] lay in the range of 1 to 25 nM; in test [2], 1 to 25 nM; in test [3], 100 to 500 nM; in test [4], 25 to 100 nM; in test [5] it was 25 to 100 nM; in the test on parental Ba/F3 cell line, 100 to 500 nM.
Take `COc1ccc(NS(C)(=O)=O)c(Nc2nc(Nc3cc(Cl)c(N4CCC(N5CCCN(C)CC5)CC4)cc3OC)ncc2Cl)c1` [Example 229, N-(2-((5-chloro-2-((5-chloro-2-methoxy-4-(4-(4-methyl-1,4-diazepan-1-yl)piperidin-1-yl)phenyl)amino)pyrimidin-4-yl)amino)-4-methoxyphenyl)methanesulfonamide]: the GI50 in test [1] lay within 25 to 100 nM; in test [2], 25 to 100 nM; in test [3], 500 to 2000 nM; in test [4] it was 100 to 500 nM; in test [5], 1 to 25 nM; in the test with parental Ba/F3 cell line, 2000 to 10000 nM.
`COc1ccc(NS(C)(=O)=O)c(Nc2nc(Nc3cc(C)c(N4CCC(N5CCC(N(C)C)C5)CC4)cc3Cl)ncc2Cl)c1` (stereo not drawn) [Example 230, N-(2-((5-chloro-2-((2-chloro-4-(4-(3-(dimethylamino)pyrrolidin-1-yl)piperidin-1-yl)-5-methylphenyl)amino)pyrimidin-4-yl)amino)-4-methoxyphenyl)methanesulfonamide]: the concentration for 50% growth inhibition (GI50) was 100 to 500 nM in test [1]; 100 to 500 nM in test [2]; 500 to 2000 nM in test [3]; 100 to 500 nM in test [4]; 25 to 100 nM in test [5]; 2000 to 10000 nM in the test on parental Ba/F3 cell line.
As for `COc1ccc(NS(C)(=O)=O)c(Nc2nc(Nc3ccc(N4CCC(N5CCN(C)CC5)CC4)cc3OC)ncc2Cl)c1` [Example 231, N-(2-((5-chloro-2-((2-methoxy-4-(4-(4-methylpiperazin-1-yl)piperidin-1-yl)phenyl)amino)pyrimidin-4-yl)amino)-4-methoxyphenyl)methanesulfonamide], the 50% growth inhibitory concentration (GI50) in test [1] lay within 100 to 500 nM; in test [2], 100 to 500 nM; in test [3], 2000 to 10000 nM; in test [4] it was 100 to 500 nM; in test [5] it was 100 to 500 nM; with parental Ba/F3 cell line, 2000 to 10000 nM.
As for `COc1ccc(NS(C)(=O)=O)c(Nc2nc(Nc3cc(C)c(N4CCC(N5CCCC(N(C)C)C5)CC4)cc3OC)ncc2Cl)c1` (stereo not drawn) [Example 232, N-(2-((5-chloro-2-((4-(3-(dimethylamino)-[1,4′-bipiperidin]-1′-yl)-2-methoxy-5-methylphenyl)amino)pyrimidin-4-yl)amino)-4-methoxyphenyl)methanesulfonamide], the GI50 in test [1] lay within 25 to 100 nM; in test [2], 100 to 500 nM; in test [3], 500 to 2000 nM; in test [4], 100 to 500 nM; in test [5] it was 25 to 100 nM; with parental Ba/F3 cell line, 2000 to 10000 nM.
In the case of `COc1ccc(NS(C)(=O)=O)c(Nc2nc(Nc3cc(C)c(N4CCC(N5CCN(C6CC6)CC5)CC4)cc3OC)ncc2Cl)c1` [Example 233, N-(2-((5-chloro-2-((4-(4-(4-cyclopropylpiperazin-1-yl)piperidin-1-yl)-2-methoxy-5-methylphenyl)amino)pyrimidin-4-yl)amino)-4-methoxyphenyl)methanesulfonamide], the GI50 was 25 to 100 nM in test [1]; 25 to 100 nM in test [2]; 500 to 2000 nM in test [3]; 25 to 100 nM in test [4]; 25 to 100 nM in test [5]; 2000 to 10000 nM in the test on parental Ba/F3 cell line.
`COc1ccc(NS(C)(=O)=O)c(Nc2nc(Nc3cc(C)c(N4CCC(N5CCC(C(F)(F)F)CC5)CC4)cc3OC)ncc2Cl)c1` [Example 234, N-(2-((5-chloro-2-((2-methoxy-5-methyl-4-(4-(trifluoromethyl)-[1,4′-bipiperidin]-1′-yl)phenyl)amino)pyrimidin-4-yl)amino)-4-methoxyphenyl)methanesulfonamide]: the GI50 in test [1] fell in the range of 100 to 500 nM; in test [2], 100 to 500 nM; in test [3], 2000 to 10000 nM; in test [4] it was 100 to 500 nM; in test [5], 100 to 500 nM; with parental Ba/F3 cell line it was 2000 to 10000 nM.
